Results reported in patent publication US7384916B2, “Methods and compositions for preventing and treating aging or photodamaged skin” (ProCyte Corporation, priority 2005, dated 2008).

Assays:
Format in all cases: cell-based
[1] = test system: Normal human dermal fibroblasts; test: Stimulation of collagen type I formation in fibroblasts (sandwich ELISA of culture media); conditions: for ELISA Collagen Type I / ELISA Collagen Type I (% Increase): 3 days; for ELISA Collagen Type I: low glucose media with 2% serum, control 48; for ELISA Collagen Type I (% Increase): vs 0 ug/ml control
Protocol: The effect of peptide manganese complexes on collagen formation was determined by determining the amount of collagen type I produced by human fibroblasts in cell culture. Normal human dermal fibroblasts were seeded into a 96-well cell culture plate and grown to confluence in high glucose media supplemented with 10% fetal calf serum for 3 days. The fibroblasts were then placed in low glucose media with 2% serum and various amounts of a representative peptide manganese complex. After 3 days, the culture media was collected and analyzed for collagen type I content by a sandwich ELISA assay using purified antibody to collagen type I.

[2] = test system: Normal human dermal fibroblasts; test: Proliferation of dermal fibroblasts (sulforhodamin B stain, cell number); conditions: for Sulforhodamin B Stain - Cell Number / Sulforhodamin B Stain - Cell Number (% Increase): 3 days; for Sulforhodamin B Stain - Cell Number: control 313; for Sulforhodamin B Stain - Cell Number (% Increase): vs 0 ug/ml control
Protocol: (§1) The effect of peptide manganese complexes on the growth and viability of fibroblasts was determined. Normal human dermal fibroblasts were seeded into a 96-well cell culture plate and grown to confluence in high glucose media supplemented with 10% fetal calf serum for 3 days. The fibroblasts were then placed in low glucose media with 2% serum and various amounts of a representative peptide manganese complex. After 3 days, the cells were incubated with neutral red to assess their viability and stained with sulforhodamin B and counted to determine the number of cells.

[3] = test system: Normal human dermal fibroblasts; test: Viability of dermal fibroblasts (neutral red stain); conditions: for Neutral Red Stain - Cell Viability: 3 days, control 212
Protocol: as §1

## glycyl-L-histidyl-L-lysine:manganese(II)
[1]; 10 ug/ml complex
  ELISA Collagen Type I: 61.5
  ELISA Collagen Type I (% Increase): +28%
[1]; 100 ug/ml complex
  ELISA Collagen Type I: 102.5
  ELISA Collagen Type I (% Increase): +129%
[1]; summary of Table 4
  Effect on formation of collagen type I (in words): stimulated the formation of collagen type I
[2]; 10 ug/ml complex
  Sulforhodamin B Stain - Cell Number: 383
  Sulforhodamin B Stain - Cell Number (% Increase): +22%
[2]; 100 ug/ml complex
  Sulforhodamin B Stain - Cell Number: 535
  Sulforhodamin B Stain - Cell Number (% Increase): +71%
[2]; summary of Table 5
  Effect on proliferation of normal human dermal fibroblasts (in words): stimulated the proliferation
[3]; 10 ug/ml complex
  Neutral Red Stain - Cell Viability: 231
[3]; 100 ug/ml complex
  Neutral Red Stain - Cell Viability: 253
[3]; summary of Table 6
  Effect on viability of normal human dermal fibroblasts (in words): increased their viability
